Seven molecules from patent publication US20200397855A1, “MODULATION OF PLA2-G1B IN THERAPY” (priority 2018, published 2020) can be followed below.

In test [1] the test system is pSTAT5 NT in CD4 T cells stimulated with IL-7. The test can be described thus: PLA2-GIB bioassay on CD4 T cells: pSTAT5 nuclear translocation in response to IL-7 (confocal microscopy). Type of test: cell-based, human. To be noted: for effect on nuclear translocation of phosphoSTAT5 (pSTAT5 NT) induced by IL-7: buffer, FIG. 1A; for pSTAT5 NT in response to IL-7: FIG. 2. From the text: Purification of Human CD4 T-lymphocytes—Venous blood was obtained from healthy volunteers through the EFS (Etablissement Francais du Sang, Centre Necker-Cabanel, Paris). CD4 T-cells were purified from whole blood using RosetteSep Human CD4+ T cell Enrichment Cocktail (Stem Cell, 15062). This cocktail contains mouse and rat monoclonal antibodies purified from mouse ascites fluid or hybridoma culture supernatant, by affinity chromatography using protein A or Protein G sepharose. These antibodies are bound in bispecific tetrameric antibody complexes which are directed against cell surface antigens on human hematopoietic cells (CD8, CD16, CD19, CD36, CD56 CD66b, TCRγ/δ) and glycophorin A on red blood cells. The rosetteSep antibody cocktail crosslinks unwanted cells in human whole blood to multiple red blood cells, forming immunorosettes. This increases the density of unwanted cells, such that they pellet along with the free red blood cells when centrifuged over a buoyant density medium such as lymphocytes separation medium (Eurobio, CMSMSL01-01).
Whole blood was incubated with RosetteSep Human CD4+ T cell Enrichment Cocktail at 50 μl/ml for 20 minutes at room temperature under gentle shaking (100 rpm), diluted with an equal volume of PBS+2% foetal bovine serum (FBS) and mixed gently. The diluted samples were centrifuged 20 minutes at 1200×g on top of lymphocytes separation medium. The enriched cells were then collected from the density medium at plasma interface and washed twice with PBS+2% FBS. Cells were subsequently resuspended in RPMI 1640 medium (Lonza) supplemented with 5% FBS, 50 mM HEPES pH 7.4, glutamine, penicillin, streptomycin and fungizone (complete medium), counted with a Moxi Z mini automated cell counter (ORFLO, MXZ000). Cells suspension was adjusted at 7×10^6 cells/ml and equilibrated at least 2 h at 37° C. in a 5% CO2 humidified atmosphere.

The subject of test [2] is PLA2-GIB activity on the membrane of Jurkat E6.1 T cells. The test can be described thus: PLA2-GIB enzymatic assay on [3H] arachidonic acid labelled Jurkat E6.1 T cells. To be noted: for PLA2-GIB activity vs scrambled PEP3: pretreatment 21 h. Type of test: cell-based, human. The protocol: (§1) Jurkat E6.1 T cells (ECACC 88042803) or gC1qR KO Jurkat E6.1 T cells were incubated for 17 h at 5×10^5 cells/ml with 1 μCi/ml of arachidonic acid [5,6,8,9,11,14,15-^3H(N)] (Perkin Elmer, NET298Z250UC) in RPMI 1640 medium (Lonza) supplemented with 10% FBS, 50 mM HEPES pH 7.4, glutamine, penicillin, streptomycin and fungizone at 2 ml/well in 6-well plates at 37° C. in a 5% CO2 humidified atmosphere. Cells were washed twice with RPMI with 10% FBS by centrifugation at 300×g for 10 minutes at room temperature and then frozen in 90% FBS 10% DMSO at 10^7 cells/ml/vial at −80° C. Percent of [3H] arachidonic acid in CD4 T cells is the (1 minus ratio of [3H] arachidonic acid in the supernatant of CD4 T cells without cells (cpm/ml) on total [3H] arachidonic acid in supernatant and cells (cpm/ml).
To test PLA2-GIB activity on [3H] arachidonic acid labelled Jurkat E6.1 T lymphocytes, cells were unfrozen in 10% FBS RPMI preheated at 37° C. by centrifugation at 300×g for 10 minutes at room temperature, washed twice in 2.5% FBS RPMI, and equilibrated at 5×10^4 or 10^5 Jurkat E6.1 T cells/400 μl/well in 24-well polystyrene plates for 1 h 30 at 37° C. in a 5% CO2 humidified atmosphere. Then HCV core solution or vehicle dilution in 2.5% FBS RPMI at 5.95 μM was mixed with an equal volume of a PLA2-GIB solution at 630 nM or 2 μM 2.5% FBS RPMI and 100 μl were added per well at the same time for 2 h. For peptide treatments, cells were pretreated for 2 h, 4 h or 21 h, as indicated on figures, with 50 μl per well of peptide solutions at 110 μM or 55 μM in 2.5% FBS RPMI. Then 50 μl per well of PLA2-GIB at 630 nM or 2 μM 2.5% FBS RPMI or medium alone were added for 2 h. Cells and supernatant were collected in eppendorf tubes and centrifuged at 580×g for 10 minutes at room temperature. The [3H] arachidonic acid released in cell supernatant was quantified in 300 μl with 16 ml of Ultima gold (Perkin Elmer, 6013329) in low diffusion vials (Perkin Elmer, 6000477) on a counter (tri-Carb 2800 TR liquid scintillation analyzer, Perkin Elmer).

Test [3] addresses T1, gC1qR (Homo sapiens, UniProt Q07021).
T1 sequence (Q07021 74-282): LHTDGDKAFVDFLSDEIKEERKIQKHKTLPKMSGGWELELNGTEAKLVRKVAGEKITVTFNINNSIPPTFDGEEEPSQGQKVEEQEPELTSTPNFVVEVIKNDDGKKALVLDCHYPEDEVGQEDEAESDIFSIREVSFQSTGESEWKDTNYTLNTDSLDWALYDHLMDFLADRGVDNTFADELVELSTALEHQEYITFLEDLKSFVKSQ
The test can be described thus: gC1qR-peptides binding assay (ELISA). The following applies: peptide coated on microplate, His-tag-gC1qR 0 to 3 μg/well, FIG. 12. The protocol:
The unbound protein was removed; the wells washed 2× with TBST (20 mM Tris-HCl pH 7.5, 150 mM NaCl, and 0.05% Tween-20) and the unreacted sites blocked by incubation (30 min, room temp) with 300 μl of 3% BSA in TBST. After washing (2× with TBST), the microtiter plate bound peptides was incubated (2 h, room temp.) with different amount of His-tag-gC1qR ranging from 0 to 3 μg/well in triplicate. After washing (5 times with TBST), 100 μl of anti-His tag-HRP antibody (1:1000; 71840-3, Merck) in 3% BSA in TBST was added per well and incubated for 2 h at room temperature. Microplates wells were then washed (5 times with TBST) and 100 μl of TMB ELISA substrate standard solution (UP664781, Interchim) was added per well. Reaction was stopped with 100 μl per well of a H2SO4 solution at 0.16M and OD at 450 nm was measured on a microplate reader (Tecan Infinite M1000 Pro).
For orientation: An ELISA detects its analyte on a solid surface through an enzyme-linked reagent.

The test system of test [4] is PLA2-GIB enzymatic activity on CD4 T cells membranes. The test can be described thus: PLA2-GIB enzymatic assay on [3H] arachidonic acid labelled CD4 T cells. Type of test: cell-based, human. The protocol: as §1, with “PLA2-GIB enzymatic assay on [3H] arachidonic acid labelled CD4 T cells or Jurkat” for “Jurkat”, “cells—Purified CD4 T-cells” for “cells (ECACC 88042803) or gC1qR KO Jurkat E6.1 T cells”, “16” for “17”, “2×10^6” for “5×10^5”, “580×g” for “300×g”
To test PLA2-GIB activity on [3H] arachidonic acid labelled CD4 T lymphocytes, cells were unfrozen in 10% FBS RPMI preheated at 37° C. by centrifugation at 580×g for 10 minutes at room temperature, washed twice in 2.5% FBS RPMI, and equilibrated at 2×10^5 CD4 T cells/400 μl/well in 24-well polystyrene plates for 1 h 30 at 37° C. in a 5% CO2 humidified atmosphere. […] Cells and supernatant were collected in eppendorf tubes and centrifuged at 580×g for 10 minutes at room temperature. The [3H] arachidonic acid released in cell supernatant was quantified in 300 μl with 16 ml of Ultima gold (Perkin Elmer, 6013329) in low diffusion vials (Perkin Elmer, 6000477) on a counter (tri-Carb 2800 TR liquid scintillation analyzer, Perkin Elmer).
To study PLA2-GIB effect on CD4 T cells membranes we developed a new enzymatic assay in which CD4 T cells are labelled with [3H] arachidonic acid. When these cells are exposed to PLA2-GIB the enzymatic activity on CD4 T cells releases [3H] arachidonic acid. The quantification of [3H] arachidonic acid allowed us to quantify PLA2-GIB activity.

The mark [5] stands for this setting: peptide alone, without PLA2-GIB, FIG. 5B.

For “C1q: Complement component C1q from human serum (Sigma C1740), natural ligand of gC1qR”, the “inhibition of pSTAT5 NT” value in test [1] (C1q (10 μg/ml) with 5 nM PLA2-GIB, FIG. 6A) is 75-85%; in test [1] (C1q alone (10 μg/ml), FIG. 6A) it was 40%.
Turning to “NH2-PWNASWSNKSLDDIW-COOH (H-PWNASWSNKSLDDIW-OH) [PEP3]”, the “inhibition of pSTAT5 NT” value is recorded as 18% in test [1] (0.025 μg/ml PEP3 with 5 nM PLA2-GIB, FIG. 5B); 5% in test [1] (0.5 μg/ml PEP3 alone, n=3 donors, FIG. 5C); 51% in test [1] (2.5 μg/ml PEP3 with 5 nM PLA2-GIB, FIG. 5B). In addition, the “effect on pSTAT5 NT” value in test [1] (setting [5]) was “no effect”. Also, the “PLA2-GIB activity vs scrambled PEP3” value in test [2] (WT Jurkat E6.1 cells, FIG. 13) is on record as “increased significantly”. In addition, the “PLA2-GIB activity on the membrane of Jurkat E6.1 T cells vs scrambled PEP3” value in test [2] (pretreatment 4 h or more, peptide 11 μM, 200 nM PLA2-GIB, FIG. 11) was “significantly increased”. Besides, the “binding to gC1qR” value in test [3] was “binds to gC1qR”.
For “NH2-PWNATWTQRTLDDIW-COOH (H-PWNATWTQRTLDDIW-OH) [CTL peptide, control peptide (CTL), reference compound]”, the “effect on pSTAT5 NT” value in test [1] (setting [5]) is “no effect”; in test [1] (peptide with 5 nM PLA2-GIB, FIG. 5B) it was “no effect”. Besides, the “binding to gC1qR” value in test [3] was “essentially do not”.
Take “NH2-SGEGGWSNGSLVDIM-COOH (H-SGEGGWSNGSLVDIM-OH) [HP Pg]”: the “PLA2-GIB activity vs scrambled PEP3” value in test [2] (200 nM PLA2-GIB, FIG. 15) was “significantly increased”.
Regarding “NH2-WNWDSKILSDPAWNS-COOH (H-WNWDSKILSDPAWNS-OH) [Scrambled PEP3, Scrambled PEP3 control peptide]”, the “binding to gC1qR” value in test [3] is given as “essentially do not”.
For “PLA2-GIB: Recombinant human group IB pancreatic phospholipase A2, produced in E. coli or CHO-S (SEQ ID NO: 1)”, the “effect on nuclear translocation of phosphoSTAT5 (pSTAT5 NT) induced by IL-7” value in test [1] (5 nM PLA2-GIB alone) is on record as “does not affect”; in test [1] (75 nM PLA2-GIB alone), “significantly decreases”. Besides, the “pSTAT5 NT in response to IL-7” value is reported as “biologically similar” in test [1] (5 nM PLA2-GIB, compared with no PLA2-GIB); 50% in test [1] (75 nM PLA2-GIB); 10% in test [1] (250 nM PLA2-GIB). The “inhibition of pSTAT5 NT” value is 49% in test [1] (75 nM PLA2-GIB alone, FIG. 4) and 79% in test [1] (250 nM PLA2-GIB alone, FIG. 4).

B1: HCV core protein: Recombinant HCV core protein (Prospec HCV-011), SEQ ID NO: 43 (protein)
chain: MSTNPKPQRKTKRNTIRRPQDVKFPGGGQIVGGVYLLPRRGPRLGVRATRKTSERSQPRGRRQPIPKARRPEGRTWAQPGYPWPLYGNEGMGWAGWLLSPRGSRPSWGPTDPRRRSRNLGKVIDTLTCGFADLMGYVPLVGAPLGGAARALAHGVRALEDGVNYATGNLPGCSFSISLWXLLSCLTIPASA
modifications: not fully specified; X: residue not identified in the source
As for B1, the “release of [3H] arachidonic acids by CD4 T cells” value in test [4] (10 μg/ml HCV core protein alone, FIG. 8B) is “slightly and significantly increases”; in test [4] (HCV core protein alone at 10 and 20 μg/ml, FIG. 8A) it was “slightly induces”. In addition, the “fold increase of PLA2-GIB activity” value in test [4] (10 μg/ml HCV core protein, 63 nM PLA2-GIB, FIG. 8A) amounted to 26 fold; in test [4] (10 μg/ml HCV core protein, 63 nM PLA2-GIB, n=3 donors, FIG. 8B), 26 fold; in test [4] (10 μg/ml HCV core protein, 200 nM PLA2-GIB, FIG. 8A), 16 fold; in test [4] (10 μg/ml HCV core protein, 200 nM PLA2-GIB, n=3 donors, FIG. 8B) it was 16 fold; in test [4] (20 μg/ml HCV core protein, 63 nM PLA2-GIB, FIG. 8A), 36 fold; in test [4] (20 μg/ml HCV core protein, 200 nM PLA2-GIB, FIG. 8A), 26 fold. Moreover, the “PLA2-GIB activity on the membrane of Jurkat E6.1 T cells” value in test [2] (HCV core 595 nM (10 μg/ml), FIG. 14) is “significantly increased”.
